Measurements: PubChem BioAssay (NCI)
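All cell lines were grown in 96-well plates and treated with compound for 48 hours. At the GI50, growth is halved. At the TGI there is no net growth.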

What was measured:
Assay in all cases: inhibition of tumour cell growth, NCI panel, 48 h
TK-10 renal = test system: TK-10 renal
HL-60(TB) leukemia = test system: HL-60(TB) leukemia
SK-MEL-2 melanoma = test system: SK-MEL-2 melanoma
SF-539 CNS = test system: SF-539 CNS
U251 CNS = test system: U251 CNS
IGROV1 ovarian = test system: IGROV1 ovarian
MDA-MB-231 breast = test system: MDA-MB-231 breast
UO-31 renal = test system: UO-31 renal
HS 578T breast = test system: HS 578T breast
OVCAR-8 ovarian = test system: OVCAR-8 ovarian
EKVX NSCLC = test system: EKVX NSCLC
MDA-MB-435 = test system: MDA-MB-435
SK-MEL-28 melanoma = test system: SK-MEL-28 melanoma
CCRF-CEM leukemia = test system: CCRF-CEM leukemia
CAKI-1 renal = test system: CAKI-1 renal
DU-145 prostate = test system: DU-145 prostate
UACC-62 melanoma = test system: UACC-62 melanoma
HT29 colon = test system: HT29 colon
BT-549 breast = test system: BT-549 breast
NCI-H522 lung = test system: NCI-H522 lung
MCF7 breast = test system: MCF7 breast
K-562 leukemia = test system: K-562 leukemia
SF-268 CNS = test system: SF-268 CNS
SF-295 CNS = test system: SF-295 CNS
SNB-75 CNS = test system: SNB-75 CNS
OVCAR-4 ovarian = test system: OVCAR-4 ovarian
M14 melanoma = test system: M14 melanoma
OVCAR-3 ovarian = test system: OVCAR-3 ovarian
COLO 205 colon = test system: COLO 205 colon
MOLT-4 leukemia = test system: MOLT-4 leukemia
T-47D breast = test system: T-47D breast
KM12 colon = test system: KM12 colon
MALME-3M melanoma = test system: MALME-3M melanoma
NCI-H23 lung = test system: NCI-H23 lung
RXF 393 renal = test system: RXF 393 renal
HCT-15 colon = test system: HCT-15 colon
786-0 renal = test system: 786-0 renal
HOP-62 NSCLC = test system: HOP-62 NSCLC
SNB-19 CNS = test system: SNB-19 CNS
NCI-H460 lung = test system: NCI-H460 lung
ACHN renal = test system: ACHN renal
LOX IMVI melanoma = test system: LOX IMVI melanoma
SN12C renal = test system: SN12C renal
OVCAR-5 ovarian = test system: OVCAR-5 ovarian
RPMI-8226 leukemia = test system: RPMI-8226 leukemia
HOP-92 NSCLC = test system: HOP-92 NSCLC
UACC-257 melanoma = test system: UACC-257 melanoma
PC-3 prostate = test system: PC-3 prostate
NCI-H226 lung = test system: NCI-H226 lung
SR leukemia = test system: SR leukemia
A498 renal = test system: A498 renal
MDA-MB-468 breast = test system: MDA-MB-468 breast
SK-OV-3 ovarian = test system: SK-OV-3 ovarian
SK-MEL-5 melanoma = test system: SK-MEL-5 melanoma
A549 NSCLC = test system: A549 NSCLC
SW-620 colon = test system: SW-620 colon
HCC-2998 colon = test system: HCC-2998 colon
HCT-116 colon = test system: HCT-116 colon

SMILES: N#Cc1c(-c2ccccc2Cl)cc(-c2ccc3ccccc3c2)[nH]c1=O
- GI50 (TK-10 renal): 18.3 µM
- TGI (TK-10 renal): 41.8 µM
- GI50 (HL-60(TB) leukemia): > 100 µM
- TGI (HL-60(TB) leukemia): > 100 µM
- GI50 (SK-MEL-2 melanoma): 14.9 µM
- TGI (SK-MEL-2 melanoma): 32.5 µM
- GI50 (SF-539 CNS): 20.9 µM
- TGI (SF-539 CNS): 46 µM
- GI50 (U251 CNS): 17.6 µM
- TGI (U251 CNS): 38.5 µM
- GI50 (IGROV1 ovarian): 34.2 µM
- TGI (IGROV1 ovarian): > 100 µM
- GI50 (MDA-MB-231 breast): 20.3 µM
- TGI (MDA-MB-231 breast): 45.5 µM
- GI50 (UO-31 renal): 16 µM
- TGI (UO-31 renal): 34.9 µM
- GI50 (HS 578T breast): 18.5 µM
- TGI (HS 578T breast): 54.9 µM
- GI50 (OVCAR-8 ovarian): 17.6 µM
- TGI (OVCAR-8 ovarian): 36.3 µM
- GI50 (EKVX NSCLC): 31.4 µM
- TGI (EKVX NSCLC): > 100 µM
- GI50 (MDA-MB-435): 27.8 µM
- TGI (MDA-MB-435): > 100 µM
- GI50 (SK-MEL-28 melanoma): 28.1 µM
- TGI (SK-MEL-28 melanoma): > 100 µM
- GI50 (CCRF-CEM leukemia): > 100 µM
- TGI (CCRF-CEM leukemia): > 100 µM
- GI50 (CAKI-1 renal): 15.9 µM
- TGI (CAKI-1 renal): 33.1 µM
- GI50 (DU-145 prostate): 36.1 µM
- TGI (DU-145 prostate): > 100 µM
- GI50 (UACC-62 melanoma): 27.9 µM
- TGI (UACC-62 melanoma): > 100 µM
- GI50 (HT29 colon): > 100 µM
- TGI (HT29 colon): > 100 µM
- GI50 (BT-549 breast): 25.2 µM
- TGI (BT-549 breast): 85.9 µM
- GI50 (NCI-H522 lung): 68.2 µM
- TGI (NCI-H522 lung): > 100 µM
- GI50 (MCF7 breast): 38.1 µM
- TGI (MCF7 breast): > 100 µM
- GI50 (K-562 leukemia): > 100 µM
- TGI (K-562 leukemia): > 100 µM
- GI50 (SF-268 CNS): 28.4 µM
- TGI (SF-268 CNS): > 100 µM
- GI50 (SF-295 CNS): 17.2 µM
- TGI (SF-295 CNS): 33.8 µM
- GI50 (SNB-75 CNS): 10.2 µM
- TGI (SNB-75 CNS): 27.7 µM
- GI50 (OVCAR-4 ovarian): 17.2 µM
- TGI (OVCAR-4 ovarian): 38.9 µM
- GI50 (M14 melanoma): 20.1 µM
- TGI (M14 melanoma): 54.9 µM
- GI50 (OVCAR-3 ovarian): 24.2 µM
- TGI (OVCAR-3 ovarian): 94.3 µM
- GI50 (COLO 205 colon): 53.5 µM
- TGI (COLO 205 colon): > 100 µM
- GI50 (MOLT-4 leukemia): > 100 µM
- TGI (MOLT-4 leukemia): > 100 µM
- GI50 (T-47D breast): 27.3 µM
- TGI (T-47D breast): > 100 µM
- GI50 (KM12 colon): 88.4 µM
- TGI (KM12 colon): > 100 µM
- GI50 (MALME-3M melanoma): 16.3 µM
- TGI (MALME-3M melanoma): 35.7 µM
- GI50 (NCI-H23 lung): 28.4 µM
- TGI (NCI-H23 lung): > 100 µM
- GI50 (RXF 393 renal): 13.5 µM
- TGI (RXF 393 renal): 28.8 µM
- GI50 (HCT-15 colon): 84.8 µM
- TGI (HCT-15 colon): > 100 µM
- GI50 (786-0 renal): 16.4 µM
- TGI (786-0 renal): 30.8 µM
- GI50 (HOP-62 NSCLC): 15.3 µM
- TGI (HOP-62 NSCLC): 29.8 µM
- GI50 (SNB-19 CNS): 18.5 µM
- TGI (SNB-19 CNS): 42.5 µM
- GI50 (NCI-H460 lung): 22.2 µM
- TGI (NCI-H460 lung): 56.9 µM
- GI50 (ACHN renal): 18.8 µM
- TGI (ACHN renal): 39.9 µM
- GI50 (LOX IMVI melanoma): 44.4 µM
- TGI (LOX IMVI melanoma): > 100 µM
- GI50 (SN12C renal): 31.7 µM
- TGI (SN12C renal): > 100 µM
- GI50 (OVCAR-5 ovarian): 75.7 µM
- TGI (OVCAR-5 ovarian): > 100 µM
- GI50 (RPMI-8226 leukemia): 76 µM
- TGI (RPMI-8226 leukemia): > 100 µM
- GI50 (HOP-92 NSCLC): 11.3 µM
- TGI (HOP-92 NSCLC): 26.8 µM
- GI50 (UACC-257 melanoma): 22.2 µM
- TGI (UACC-257 melanoma): 71.9 µM
- GI50 (PC-3 prostate): 41.1 µM
- TGI (PC-3 prostate): > 100 µM
- GI50 (NCI-H226 lung): 16.1 µM
- TGI (NCI-H226 lung): 38.9 µM
- GI50 (SR leukemia): > 100 µM
- TGI (SR leukemia): > 100 µM
- GI50 (A498 renal): 15.9 µM
- TGI (A498 renal): 34.3 µM
- GI50 (MDA-MB-468 breast): 23 µM
- TGI (MDA-MB-468 breast): 73.2 µM
- GI50 (SK-OV-3 ovarian): 15.9 µM
- TGI (SK-OV-3 ovarian): 32.4 µM
- GI50 (SK-MEL-5 melanoma): 15.6 µM
- TGI (SK-MEL-5 melanoma): 46.6 µM
- GI50 (A549 NSCLC): 27.3 µM
- TGI (A549 NSCLC): > 100 µM
- GI50 (SW-620 colon): 42 µM
- TGI (SW-620 colon): > 100 µM
- GI50 (HCC-2998 colon): 53.1 µM
- TGI (HCC-2998 colon): > 100 µM
- GI50 (HCT-116 colon): 27.2 µM
- TGI (HCT-116 colon): 89.8 µM
